Consider four compounds from US12240844B2 (Voronoi, Inc., priority 2019, dated 2025).

For one test, the system named is MDA-MB-468 cell line. The experiment in a line: MDA-MB-468 cancer cell proliferation inhibition (Cell Titer-Glo). It counts as cell-based. The conditions noted are these: Homo sapiens, MDA-MB-468 triple-negative breast cancer cell line, 72 hours. The protocol: In order to evaluate the cancer cell proliferation inhibitory activity of the compounds of the present invention, the following experiments were performed.
To evaluate the cancer cell proliferation inhibitory effect, the cell growth rate analysis was performed while culturing MDA-MB-231 cell line (Korean Cell Line Bank #30026) and MDA-MB-468 cell line as the triple-negative breast cancer cell line, and SHP-77 (ATCC #CRL-2195) as the small cell lung cancer cell line in DMEM (HyClone #SH30243) and RPMI medium (HyClone #SH3027.01), respectively. More specifically, the cell lines were each plated at 2000 cells/100 μl in each well of a 96-well flat-bottom plate (coming #3903), and then the example compounds having eleven concentrations which were diluted by ⅓ so that the final concentrations were 10.000000, 3.333333, 1.111111, 0.370370, 0.123457, 0.041152, 0.013717, 0.004572, 0.001524, 0.000508 and 0.000169 μM were treated. After 72 hours, 100 μl of Cell Titer-Glo (Promega G7573) was treated, incubated at RT for 10 minutes, and then luminescence was measured using a microplate reader. The measured luminescence degree was calculated as GI50 using Prism (version 8.2 GraphPad) software.
In the table below, the following designations were used for the evaluation of proliferation inhibitory activity.
On the technique in general: Cellular ATP, detected with luciferase, serves as a proxy for viable cell number.

The next test concerns SHP-77. The experiment in a line: SHP-77 cancer cell proliferation inhibition (Cell Titer-Glo). It counts as cell-based. The settings on record: Homo sapiens, SHP77, SHP-77 small cell lung cancer cell line, 72 hours. In short, it runs like this: (§1)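 GI50 comes from CellTiter-Glo luminescence, read 10 min after reagent addition at RT, following 72 h compound treatment. Eleven concentrations were used (⅓ steps, highest 10 μM final) on 2000 cells/well. MDA-MB-231 and MDA-MB-468 were grown in DMEM, SHP-77 in RPMI.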

Test [1] addresses T1, human GST-DYRK1A (full length) (Homo sapiens, UniProt Q13627).
T1 construct: purified human GST-DYRK1A (full length, Thermo scientifics) enzyme; GST; purchased Thermo scientifics
The experiment in a line: GST-DYRK1A enzyme inhibition, ADP-Glo kinase assay. It counts as biochemical. The conditions noted are these: read-out: DYRK1 IC50. In short, it runs like this:
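Full-length human GST-DYRK1A (10 ng) incubated with 10 uM ATP and specific substrate for 1 h at 25° C in 40 mM Tris-HCl pH 7.4, 20 mM MgCl2, 0.5 mg/mL BSA, 50 uM DTT. ADP formation read by ADP-Glo luminescence; IC50 (nM) versus solvent control, triplicate.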
(In ADP-Glo the light output rises with the ADP produced.)

Another test concerns the target T2, human GST-CLK1 (129-end) (Homo sapiens, UniProt P49759).
T2 construct: purified human GST-CLK1 (129-end, Signalchem) enzyme; GST; purchased Signalchem
The experiment in a line: GST-CLK1 enzyme inhibition, ADP-Glo kinase assay. The settings on record: ATP 10 uM. In kind it is biochemical. In short, it runs like this:
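GST-CLK1 (129-end, 3 ng) reacted with 10 uM ATP and substrate in 40 mM Tris-HCl pH 7.4, 20 mM MgCl2, 0.5 mg/mL BSA, 50 uM DTT, 1 h at 25° C. ADP-Glo luminescence normalised to solvent control; IC50 from triplicate data.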

For a further test, the system named is MDA-MB-231 cell line. The experiment in a line: MDA-MB-231 cancer cell proliferation inhibition (Cell Titer-Glo). In kind it is cell-based. The conditions noted are these: Homo sapiens, MDA-MB-231 triple-negative breast cancer cell line, 72 hours. In outline: as §1
A further test concerns the target LRRK2 (Homo sapiens, UniProt Q5S007). The experiment in a line: LRRK2 enzyme inhibition, ADP-Glo kinase assay. It counts as biochemical. On the set-up: purchased Invitrogen PR8604B. In short, it runs like this: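 Purified human LRRK2 (25 ng) in 40 mM Tris-HCl pH7.4, 20 mM MgCl2, 0.5 mg/ml BSA, 50 μM DTT with 10 μM ATP and substrate ([…]), 2 h at 25° C. Final compound 50 to 0.000001024 μM, 12-point dilution. ADP-Glo luminescence vs solvent control; IC50 (nM).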

The target of the next test is LRRK2 (G2019S) (Homo sapiens, UniProt Q5S007, G2019S). The experiment in a line: LRRK2 G2019S enzyme inhibition, ADP-Glo kinase assay. Details: purchased SignalChem L10-12GG. It counts as biochemical. In short, it runs like this: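 Purified human LRRK2 G2019S (16 ng) with 25 μM ATP and 0.2 μg substrate, 2 h at 25° C in 40 mM Tris-HCl pH 7.4, 20 mM MgCl2, 0.5 mg/ml BSA, 50 μM DTT; compound at 12 final concentrations from 50 μM downward. ADP-Glo luminescence versus solvent control gave IC50 (nM).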
Sequence of LRRK2 (G2019S) (Q5S007 970-2527 G2019S limits assumed): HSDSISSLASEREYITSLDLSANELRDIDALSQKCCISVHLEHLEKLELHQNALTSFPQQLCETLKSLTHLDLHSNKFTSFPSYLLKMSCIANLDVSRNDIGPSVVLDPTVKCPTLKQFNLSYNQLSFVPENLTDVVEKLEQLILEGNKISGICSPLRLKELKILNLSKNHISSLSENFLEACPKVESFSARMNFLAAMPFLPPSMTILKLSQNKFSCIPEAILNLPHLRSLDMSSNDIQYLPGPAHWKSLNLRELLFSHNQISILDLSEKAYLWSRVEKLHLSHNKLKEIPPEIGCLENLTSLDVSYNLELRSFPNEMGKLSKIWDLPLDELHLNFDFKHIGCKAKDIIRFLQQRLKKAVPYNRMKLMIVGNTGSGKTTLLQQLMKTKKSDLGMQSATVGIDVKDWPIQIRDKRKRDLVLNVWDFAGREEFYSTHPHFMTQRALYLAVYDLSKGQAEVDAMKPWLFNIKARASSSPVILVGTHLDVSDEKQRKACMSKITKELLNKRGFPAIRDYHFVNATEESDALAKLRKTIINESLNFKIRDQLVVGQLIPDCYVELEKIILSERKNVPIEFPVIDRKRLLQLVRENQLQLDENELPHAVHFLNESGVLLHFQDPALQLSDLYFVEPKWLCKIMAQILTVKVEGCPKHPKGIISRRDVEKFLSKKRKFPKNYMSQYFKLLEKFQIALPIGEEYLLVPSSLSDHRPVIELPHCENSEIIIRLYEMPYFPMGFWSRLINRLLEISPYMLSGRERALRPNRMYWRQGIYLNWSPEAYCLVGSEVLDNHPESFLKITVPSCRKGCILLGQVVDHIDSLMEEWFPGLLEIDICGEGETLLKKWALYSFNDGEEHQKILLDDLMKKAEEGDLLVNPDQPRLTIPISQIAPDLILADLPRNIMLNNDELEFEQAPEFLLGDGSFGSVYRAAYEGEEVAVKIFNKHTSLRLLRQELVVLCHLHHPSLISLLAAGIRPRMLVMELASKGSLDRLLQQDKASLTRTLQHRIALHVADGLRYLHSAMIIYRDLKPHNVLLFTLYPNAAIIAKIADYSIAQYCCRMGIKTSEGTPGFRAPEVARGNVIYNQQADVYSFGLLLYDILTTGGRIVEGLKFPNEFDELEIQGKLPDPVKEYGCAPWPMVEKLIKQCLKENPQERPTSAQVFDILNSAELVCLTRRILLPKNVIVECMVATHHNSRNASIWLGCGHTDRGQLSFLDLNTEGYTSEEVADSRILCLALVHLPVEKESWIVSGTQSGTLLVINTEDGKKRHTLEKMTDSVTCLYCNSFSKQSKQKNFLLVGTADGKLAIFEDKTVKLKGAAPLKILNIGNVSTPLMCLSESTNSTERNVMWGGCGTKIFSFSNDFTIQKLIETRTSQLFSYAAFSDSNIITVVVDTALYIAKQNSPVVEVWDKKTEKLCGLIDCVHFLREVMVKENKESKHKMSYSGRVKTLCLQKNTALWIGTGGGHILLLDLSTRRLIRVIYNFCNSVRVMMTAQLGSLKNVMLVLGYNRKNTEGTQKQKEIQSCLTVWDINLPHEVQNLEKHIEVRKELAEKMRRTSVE

The next test concerns THP-1. The experiment in a line: THP-1 GI50 (Table 4, method not given). It counts as cell-based. The settings on record: Homo sapiens; THP-1 cells.
The next test has as its system TNF-α. The experiment in a line: TNF-α secretion inhibition in LPS-treated THP-1 cells (ELISA). The conditions noted are these: Homo sapiens, compound 0.5 μM, LPS 500 ng/ml, 24 hours, read-out: THP-1/TNF-a (% inhib). In kind it is cell-based. As to the method:
(§2) In order to evaluate the cytokine secretion inhibitory efficacy of mononuclear cells, THP-1 cells (ATCC, #TIB-202) as a human-derived monocyte cell line were cultured in RPMI-1640 (Hyclone, SH30027.01) media in which 10% fetal bovine serum (Hyclone, SH30084.03), 1% penicillin streptomycin (Welgene, LS202-02) and 50 μM 2-Mercaptoethanol (Gibco, #21985023) were contained. In the test, 1.5-2×10^5 cells/250 μl per each well were dispensed in a 48-well plate (SPL, #30048) and incubated in an incubator at 37° C. and 5% CO2 for 16 hours, and then the compounds were diluted in DMSO so that the final concentration was 0.5 μM. It was treated with Lipopolysaccharides (LPS) (sigma, #L6529) […]. After treatment with the compound, the LPS was treated so that the final concentration was 500 ng/ml, and then the cell culture fluid was collected after culturing for 24 hours, and the degrees of the cytokines IL-6 (R&D system, #D6050) and TNF-α (R&D system, #DTA00D) contained in the culture fluid were collected using each ELISA kit. After performing the experiment according to the manufacturer's instructions, the absorbance at 450 nm was measured and analyzed using a microplate reader.
On the technique in general: An ELISA detects its analyte on a solid surface through an enzyme-linked reagent.

The subject of the next test is IL-6. The experiment in a line: IL-6 secretion inhibition in LPS-treated THP-1 cells (ELISA). It counts as cell-based. The settings on record: Homo sapiens, compound 0.5 μM, LPS 500 ng/ml, 24 hours, read-out: THP1/IL6 (% inhib). The protocol:
as §2

Sequence of LRRK2 (Q5S007 970-2527 limits assumed): as the sequence (Q5S007 970-2527 G2019S limits assumed) above, with S1050G counted along it
T2 sequence (P49759 129-484 limits assumed): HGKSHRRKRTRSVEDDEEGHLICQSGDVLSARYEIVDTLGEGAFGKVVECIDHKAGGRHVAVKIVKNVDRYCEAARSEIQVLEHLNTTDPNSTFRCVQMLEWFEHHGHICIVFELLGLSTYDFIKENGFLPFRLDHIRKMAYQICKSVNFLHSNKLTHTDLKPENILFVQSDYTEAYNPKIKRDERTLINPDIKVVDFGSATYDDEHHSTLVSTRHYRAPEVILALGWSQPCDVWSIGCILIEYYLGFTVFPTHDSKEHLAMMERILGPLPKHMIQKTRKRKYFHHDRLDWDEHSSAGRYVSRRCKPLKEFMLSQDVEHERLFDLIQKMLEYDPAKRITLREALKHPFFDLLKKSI

What is called GI50 is the concentration giving 50% growth inhibition. As a reminder, the IC50 is the concentration at which inhibition is half-maximal. With `COc1cc(S(=O)(=O)N2CCC(N3CCOCC3)CC2)ccc1Nc1cc(NC2CCCCC2)c2c(C#N)c[nH]c2n1` [Example 151, N^4-(cyclohexylamino)-N^6-((2-methoxy-4-((4-morpholinopiperidin-1-yl)sulfonyl)phenyl)amino)-1H-pyrrolo[2,3-b]pyridine-3-carbonitrile], the values for the GI50 in the test with MDA-MB-468 cell line, with SHP-77 and in the test with MDA-MB-231 cell line were 0.101 to 0.3 µM, 0.051 to 0.1 µM and 0.051 to 0.1 µM, respectively. Further, the IC50 (in [1]; against human GST-CLK1 (129-end)) was 0.301 to 1 µM throughout.
In the case of `CNc1cc(Nc2ccc(C(=O)N3CCOCC3)c3c2OCCO3)nc2[nH]cc(C(F)(F)F)c12` [Example 152, (8-((4-(methylamino)-3-(trifluoromethyl)-1H-pyrrolo[2,3-b]pyridin-6-yl)amino)-2,3-dihydrobenzo [b] [1,4]dioxin-5-yl)(morpholino) methanone], the GI50 in the test with MDA-MB-468 cell line is 0.101 to 0.3 µM. Further, the IC50 (on LRRK2; in test [1]; on LRRK2 (G2019S); against human GST-CLK1 (129-end)) was less than 0.1 µM each time.
Compound `CCNc1cc(Nc2ccc(C(=O)N3CCOCC3)c3c2OCCO3)nc2[nH]cc(C(F)(F)F)c12` [Example 153, (8-((4-(ethylamino)-3-(trifluoromethyl)-1H-pyrrolo[2,3-b]pyridin-6-yl)amino)-2,3-dihydrobenzo[b] [1,4]dioxin-5-yl)(morpholino) methanone] came in with a GI50 in the test on THP-1 of 14.4 µM. The IC50 on LRRK2 is less than 0.1 µM; in test [1], less than 0.1 µM; at LRRK2 (G2019S) it was 0.101 to 0.3 µM; at human GST-CLK1 (129-end) it was less than 0.1 µM. Also, the figures for the inhibition at 0.5 µM in the test on TNF-α and in the test on IL-6 were 40.4% and 32.7%, respectively.
In the test on MDA-MB-468 cell line, `N#Cc1c[nH]c2nc(Nc3ccc(C(=O)N4CCOCC4)c4c3OCCO4)cc(NC3CCCC3)c12` [Example 112, 4-(cyclopentylamino)-6-((8-(morpholine-4-carbonyl)-2,3-dihydrobenzo[b] [1,4]dioxin-5-yl)amino)-1H-pyrrolo[2,3-b]pyridine-3-carbonitrile] gave a GI50 of 0.051 to 0.1 µM. Besides, the concentration for half-maximal inhibition (IC50) was less than 0.1 µM at LRRK2, 0.301 to 1 µM in [1], less than 0.1 µM on LRRK2 (G2019S) and 0.301 to 1 µM on human GST-CLK1 (129-end).
